Reference: article PMC3465347, “Regulation of NF-κB Activation through a Novel PI-3K-Independent and PKA/Akt-Dependent Pathway in Human Umbilical Vein Endothelial Cells” (PLoS ONE, 2012)
“Also recorded” adds a separate entry of the source.

Assays:
[1] = test system: human endothelial cells (HUVECs); assay: MTT cytotoxicity assay; type: cell-based
Experimental: The cytotoxicity of MPG and its derivatives was analyzed by colorimetric assay using MTT (Thiazolyl blue tetrazolium bromide) reagent as described previously. All experiments were performed at least 3 times in triplicate wells. From this assay, the percentage viability (% viability) of the cells at various concentrations of each compound was determined by normalization to control wells that contained cells incubated in vehicle (0.25% DMSO or cell culture medium) and which were considered 100% viable. The highest concentration at which the viability of the cells was >95% was denoted as the maximum tolerable concentration for that compound.

[2] = test system: TNF-α-induced ICAM-1 expression on human endothelial cells; assay: Cell-ELISA for ICAM-1 expression; type: cell-based
Experimental: (§1) The endothelial cells were incubated with or without MPG and its derivatives at various concentrations for 2 h followed by treatment with TNF-α (10 ng/ml) for 16 h for ICAM-1 and VCAM-1 expression and 4 h for E-selectin expression. A Cell-ELISA was used to assess the expression of ICAM-1, VCAM-1 and E-selectin on the surface of endothelial cells as described previously.

[3] = test system: TNF-α-induced E-selectin expression on human endothelial cells; assay: Cell-ELISA for E-selectin expression; type: cell-based; conditions: added 2–4 h prior to TNF-α stimulation; data not shown
Experimental: as §1

[4] = test system: ICAM-1 mRNA in endothelial cells; assay: RT-PCR of ICAM-1 transcript; type: cell-based, human; conditions: 400 µM pretreatment, TNF-α 10 ng/ml 4 h
Experimental: In order to examine whether MPTAG reduced the mRNA transcript levels of cell adhesion molecules genes, the endothelial cells were pretreated with 400 µM MPTAG for 2 h before induction with TNF-α for 4 h followed by RT-PCR. RNA was isolated from MPTAG-treated cells according to a modified guanidinium thiocyanate procedure. The expression of the transcripts for ICAM-1, VCAM-1 and E-selectin was evaluated by RT-PCR [45]. β-Actin levels expressed under similar conditions were used as a loading control.

[5] = test system: NF-κB DNA-binding activity in HUVECs; assay: NF-κB activation assay (EMSA) in nuclear extracts; type: cell-based, human
Experimental: The endothelial cells were subjected to the indicated treatments followed by induction with TNF-α for indicated time points or 30 mins. The cells were then washed with PBS and dislodged using a cell scraper. The cytoplasmic and nuclear extracts were prepared as described previously, [46].
NF-κB activation in the nuclear extracts of human endothelial cells was assessed by electrophoretic mobility shift assay (EMSA) as described previously, [46]. For supershift experiment, nuclear extracts prepared from unstimulated and TNF-α-stimulated cells were incubated with antibodies against the p50 or p65 subunit of NF-κB or -α-tubulin for 15 mins at 37°C before the complex was analyzed by EMSA. Addition of equal amount of radioactive-labelled probe to all the samples was indicated by the similar intensity of the unincorporated probe observed towards the end of the gel.

[6] = test system: NF-κB p65 phosphorylation in endothelial cells; assay: p65 phosphorylation western blot; type: cell-based, human; conditions: 400 µM pretreatment
Experimental: (§2) Nuclear and cytoplasmic extracts were fractionated on SDS-PAGE with equal amount of proteins per well and transferred onto PVDF membranes and those membranes were incubated with appropriate primary antibodies and treated with HRP conjugated secondary antibodies followed by detection with DAB-H2O2 system. β-tubulin, α-actin and Lamin B1 were used as loading controls. Antibodies against NF-κBp65, phosphoNF-κBp65, IκBα, phosphoIκBα, IKK-β, Akt, phosphoAkt (Ser473) and phosphoAkt (Thr308) were used.

[7] = test system: TNF-α-induced IKK-β activation in HUVECs; assay: IKK-β activation in treated cells (immunoprecipitation, kinase assay); type: cell-based, human
Experimental: (§3) In brief, confluent HUVECs were incubated with or without MPTAG and were stimulated with TNF-α (10 ng/ml) for 15 mins. The cells were washed and lysed in Lysis buffer containing 50 mM HEPES, pH 7.6, 10% glycerol, 1 mM sodium orthovanadate, 100 mM NaCl, 1% NP-40, 1 mM EDTA and protease inhibitor cocktail and allowed to swell on ice for 45 mins. Following centrifugation at 13,000 rpm for 45 mins, the supernatants were collected as “total cell extracts” and stored at −70°C. Immunoprecipitation was performed as per the instructions of Protein G immunoprecipitation kit (Sigma Aldrich, USA). Endogenous IKK complexes were immunoprecipitated in the following reaction mixtures: 100–300 µg of total cell extracts were incubated with 2–4 µg anti-IKK-β or PKAα antibody in 100 µl 1× IP buffer. After incubation for 16 h at 4°C with constant shaking, 50 µl of activated protein G beads were added and the mixture was incubated under rotation for an additional 3 h at 4°C.
(§4) Kinase assay was performed as previously described. Immunoprecipitates from 100 µg of total cell extracts were used for kinase assays. The reaction mixture consisted of kinase buffer (20 mM Tris Cl, pH 7.6, 1 mM EDTA, 1 mM sodium orthovanadate, 20 mM MgCl2, 2 mM DTT), 2 µg GST-IκBα(1–54), 5 µM ATP and 1 µCi [γ ^32P] ATP in a volume of 30 µl. […]

IKK-β = biological target: T1, IKK-β (Homo sapiens, UniProt O14920); assay: Direct IKK-β kinase assay on immunoprecipitated IKK-β; type: biochemical; conditions: immunoprecipitated IKK-β incubated with MPTAG
T1 construct: Endogenous IKK complexes were immunoprecipitated in the following reaction mixtures; endogenous in cells; host or cells: HUVEC (uninduced and TNF-α-induced), anti-IKK-β immunoprecipitate
T1 sequence (O14920 whole entry): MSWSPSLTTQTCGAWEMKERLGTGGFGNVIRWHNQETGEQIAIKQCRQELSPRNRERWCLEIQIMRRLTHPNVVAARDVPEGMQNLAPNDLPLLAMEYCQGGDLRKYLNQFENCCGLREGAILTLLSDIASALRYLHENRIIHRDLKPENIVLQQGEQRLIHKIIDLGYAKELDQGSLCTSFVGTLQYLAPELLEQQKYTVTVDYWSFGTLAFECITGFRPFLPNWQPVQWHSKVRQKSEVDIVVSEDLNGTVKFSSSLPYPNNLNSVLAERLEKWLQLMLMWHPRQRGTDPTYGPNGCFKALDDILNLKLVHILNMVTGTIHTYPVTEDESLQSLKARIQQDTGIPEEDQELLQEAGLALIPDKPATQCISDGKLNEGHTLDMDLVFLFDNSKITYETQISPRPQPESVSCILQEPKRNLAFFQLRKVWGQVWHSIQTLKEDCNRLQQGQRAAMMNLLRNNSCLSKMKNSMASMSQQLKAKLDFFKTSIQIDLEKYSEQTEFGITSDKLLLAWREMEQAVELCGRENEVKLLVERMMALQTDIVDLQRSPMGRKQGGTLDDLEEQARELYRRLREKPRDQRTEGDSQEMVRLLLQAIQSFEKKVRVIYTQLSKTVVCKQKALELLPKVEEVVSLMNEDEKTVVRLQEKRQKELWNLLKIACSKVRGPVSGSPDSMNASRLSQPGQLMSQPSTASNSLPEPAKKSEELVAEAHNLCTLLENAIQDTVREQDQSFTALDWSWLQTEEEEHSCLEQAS
Experimental: as §3, §4

[8] = test system: association of Akt with IKK-β; assay: Akt/IKK-β association (co-immunoprecipitation); type: cell-based, human; conditions: dose-dependent and time-dependent
Experimental: as §3
as §2, with “Antibodies against NF-κBp65, phosphoNF-κBp65, IκBα, phosphoIκBα, IKK-β, Akt, phosphoAkt (Ser473) and phosphoAkt (Thr308) were used.” left out

p38 MAPK = p38 MAPK activation western blot; type: cell-based, human; conditions: MPTAG pretreatment

- TNF-α-induced NF-κB activation (EMSA), H-89 treatment preceding MPTAG ([5]; H-89 then MPTAG, TNF-α): remained increased
- TNF-α-induced NF-κB activation (EMSA), MPTAG treatment preceding H-89 ([5]; MPTAG then H-89, TNF-α): inhibited
- basal NF-κB activation ([5]; without TNF-α stimulation): no significant inhibitory effect
- TNF-α-induced NF-κB activation (EMSA) in presence or absence of wortmannin ([5]; wortmannin before MPTAG, then TNF-α): inhibited similarly
- activity of IKK-β by direct interaction (IKK-β): did not affect
Compound: CC(=O)OC[C@H]1O[C@@H](Oc2c(C)occc2=O)[C@H](OC(C)=O)[C@@H](OC(C)=O)[C@@H]1OC(C)=O [MPTAG, 2-methyl-pyran-4-one-3-O-β-D-2′,3′,4′,6′-tetra-O-acetyl glucopyranoside]
- morphology and viability in HUVECs ([1]; 400 µM): without affecting
- cytotoxicity compared to parent compound MPG and the other two derivatives ([1]; MTT, human endothelial cells): less cytotoxic
- inhibition of ICAM-1 ([2]; added 2–4 h prior to TNF-α stimulation, data not shown): maximum inhibition
- rank among derivatives for inhibition of TNF-α-induced ICAM-1, VCAM-1, E-selectin expression and neutrophil adhesion ([2]; human endothelial cells, Table S2): most active derivative
- inhibition of E-selectin [3]: maximum inhibition
- TNF-α-induced ICAM-1 mRNA level [4]: significantly reduced
- TNF-α-induced NF-κB DNA-binding activity / NF-κB activation (EMSA) ([5]; MPTAG 400 µM, dose-dependent): almost complete inhibition; also recorded: significantly inhibited
- TNF-α-induced p65 phosphorylation in the cytoplasm [6]: inhibits p65 phosphorylation
- TNF-α-induced activation of IKK-β ([7]; pretreatment of cells, dose-dependent): appreciably suppressed
- protein levels of IKK-β ([7]; western blot): neither TNF-α nor MPTAG affected
- TNF-α-induced association of Akt with IKK-β [8]: significantly prevented
- TNF-α-induced p38 activation (p38 MAPK): no effect
